A value given as a limit tells only on which side of the number the result lay.

Broadly, the IC50 is the midpoint of a concentration-inhibition curve. A higher IC50 goes with weaker potency in that assay.

The target in data set [1] is T1, CYP3A4/5 (Homo sapiens, UniProt P08684+P20815). The data set can be described thus: Inhibition of CYP3A4/5 in human pooled liver microsomes using midazolam as substrate after 10 mins by UPLC-MS/MS analysis. In kind it is ADME. As to conditions: probe midazolam. (Liver microsomes are vesicles of endoplasmic reticulum, rich in cytochrome P450 enzymes.)
The target in data set [2] is T2, Cytochrome P450 2D6 (Homo sapiens, UniProt P10635). The data set can be described thus: Inhibition of CYP2D6 in human pooled liver microsomes using dextromethorphan as substrate after 10 mins by UPLC-MS/MS analysis. In kind it is ADME.
T2 sequence (P10635 whole entry): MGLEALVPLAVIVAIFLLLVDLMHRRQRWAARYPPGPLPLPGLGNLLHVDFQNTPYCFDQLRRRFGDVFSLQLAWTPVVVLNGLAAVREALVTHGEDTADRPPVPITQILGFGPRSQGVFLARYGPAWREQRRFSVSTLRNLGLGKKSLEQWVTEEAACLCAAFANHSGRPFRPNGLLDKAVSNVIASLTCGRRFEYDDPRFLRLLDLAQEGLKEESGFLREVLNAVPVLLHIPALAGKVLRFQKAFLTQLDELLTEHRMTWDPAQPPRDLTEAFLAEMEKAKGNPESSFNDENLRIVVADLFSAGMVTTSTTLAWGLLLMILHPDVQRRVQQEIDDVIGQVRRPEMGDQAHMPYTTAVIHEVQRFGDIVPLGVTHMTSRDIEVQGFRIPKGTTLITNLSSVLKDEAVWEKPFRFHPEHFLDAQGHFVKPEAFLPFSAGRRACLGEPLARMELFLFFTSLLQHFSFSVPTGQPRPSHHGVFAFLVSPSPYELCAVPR
Data set [3] addresses T3, Cytochrome P450 2C19 (Homo sapiens, UniProt P33261). The data set can be described thus: Inhibition of CYP2C19 in human pooled liver microsomes using (S)-mephenytoin as substrate preincubated with NADPH for 30 mins followed by substrate addition and measured after 10 mins by UPLC-MS/MS analysis. In kind it is ADME.
For a further data set, the system named is T47D. Kind of data set: Cytotoxicity against human T47D cells at 3 uM after 24 hrs by CellTiter-Glo luminescent cell viability assay. In kind it is cell-based. In general terms: ATP-based viability assays read luminescence as a measure of living cells.
The target of data set [4] is T4, Cytochrome P450 1A2 (Homo sapiens, UniProt P05177).
T4 sequence (P05177 whole entry): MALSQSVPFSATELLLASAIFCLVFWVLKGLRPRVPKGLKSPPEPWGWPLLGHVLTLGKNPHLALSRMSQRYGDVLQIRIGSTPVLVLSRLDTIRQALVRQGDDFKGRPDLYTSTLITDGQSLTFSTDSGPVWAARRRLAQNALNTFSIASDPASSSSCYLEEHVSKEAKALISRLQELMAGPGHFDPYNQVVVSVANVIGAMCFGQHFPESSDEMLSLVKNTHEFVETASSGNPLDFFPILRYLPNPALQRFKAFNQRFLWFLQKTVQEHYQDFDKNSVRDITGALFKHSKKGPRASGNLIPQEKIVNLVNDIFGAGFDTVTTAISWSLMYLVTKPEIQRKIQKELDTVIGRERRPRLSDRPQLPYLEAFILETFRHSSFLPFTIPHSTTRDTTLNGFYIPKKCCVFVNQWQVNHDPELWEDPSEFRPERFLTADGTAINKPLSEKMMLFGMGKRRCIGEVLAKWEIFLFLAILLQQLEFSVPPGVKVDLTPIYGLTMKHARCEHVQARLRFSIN
The data set can be described thus: Inhibition of CYP1A2 in human pooled liver microsomes using phenacetin as substrate preincubated with NADPH for 30 mins followed by substrate addition and measured after 10 mins by UPLC-MS/MS analysis. In kind it is ADME.

The target of data set [5] is T5, Cytochrome P450 2C9 (Homo sapiens, UniProt P11712). The data set can be described thus: Inhibition of CYP2C9 in human pooled liver microsomes using tolbutamide as substrate after 10 mins by UPLC-MS/MS analysis. In kind it is ADME.
T5 sequence (P11712 whole entry): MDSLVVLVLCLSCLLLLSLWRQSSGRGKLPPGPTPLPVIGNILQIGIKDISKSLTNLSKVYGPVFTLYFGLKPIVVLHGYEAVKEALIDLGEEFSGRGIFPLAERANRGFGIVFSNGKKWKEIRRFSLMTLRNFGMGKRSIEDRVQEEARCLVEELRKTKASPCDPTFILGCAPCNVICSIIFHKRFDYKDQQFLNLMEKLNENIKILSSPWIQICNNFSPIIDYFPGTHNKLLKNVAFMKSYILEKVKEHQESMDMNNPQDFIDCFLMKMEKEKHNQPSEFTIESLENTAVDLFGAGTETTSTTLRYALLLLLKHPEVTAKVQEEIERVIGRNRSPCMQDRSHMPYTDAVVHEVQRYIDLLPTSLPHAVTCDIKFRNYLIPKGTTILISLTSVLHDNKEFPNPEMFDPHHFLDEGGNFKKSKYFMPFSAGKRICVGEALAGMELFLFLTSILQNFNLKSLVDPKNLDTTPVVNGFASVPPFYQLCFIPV
Data set [6] has as its target T1, CYP3A4/5. The data set can be described thus: Inhibition of CYP3A4/5 in human pooled liver microsomes using midazolam as substrate preincubated with NADPH for 30 mins followed by substrate addition and measured after 10 mins by UPLC-MS/MS analysis. The format is ADME. As to conditions: probe midazolam.
In data set [7] the target is T4, Cytochrome P450 1A2. The data set can be described thus: Inhibition of CYP1A2 in human pooled liver microsomes using phenacetin as substrate after 10 mins by UPLC-MS/MS analysis. In kind it is ADME.
The target of data set [8] is T6, Cytochrome P450 2C8 (Homo sapiens, UniProt P10632).
T6 sequence (P10632 whole entry): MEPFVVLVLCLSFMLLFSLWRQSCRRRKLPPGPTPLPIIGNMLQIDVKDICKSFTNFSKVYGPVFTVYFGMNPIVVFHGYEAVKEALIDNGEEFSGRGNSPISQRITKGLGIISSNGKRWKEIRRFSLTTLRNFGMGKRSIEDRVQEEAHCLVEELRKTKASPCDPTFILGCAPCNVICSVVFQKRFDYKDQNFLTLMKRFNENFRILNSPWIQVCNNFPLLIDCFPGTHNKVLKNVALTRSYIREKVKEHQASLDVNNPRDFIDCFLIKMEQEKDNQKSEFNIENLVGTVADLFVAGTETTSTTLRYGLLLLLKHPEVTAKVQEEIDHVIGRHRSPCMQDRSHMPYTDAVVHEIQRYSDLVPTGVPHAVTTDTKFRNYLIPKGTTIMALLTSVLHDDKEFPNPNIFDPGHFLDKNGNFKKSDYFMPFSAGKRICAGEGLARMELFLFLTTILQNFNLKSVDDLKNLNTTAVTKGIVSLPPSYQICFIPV
Kind of data set: Inhibition of CYP2C8 in human pooled liver microsomes using amodiaquine as substrate preincubated with NADPH for 30 mins followed by substrate addition and measured after 10 mins by UPLC-MS/MS analysis. In kind it is ADME.

Data set [9] deals with T6, Cytochrome P450 2C8. The data set can be described thus: Inhibition of CYP2C8 in human pooled liver microsomes using amodiaquine as substrate after 10 mins by UPLC-MS/MS analysis. The format is ADME.
Data set [10] has as its target T5, Cytochrome P450 2C9. Kind of data set: Inhibition of CYP2C9 in human pooled liver microsomes using tolbutamide as substrate preincubated with NADPH for 30 mins followed by substrate addition and measured after 10 mins by UPLC-MS/MS analysis. The format is ADME.
For a further data set, the system named is HepG2. The data set can be described thus: Cytotoxicity against human HepG2 cells at 3 uM after 24 hrs by CellTiter-Glo luminescent cell viability assay. The format is cell-based. The conditions noted are these: hepg2, 24 h.
The target of data set [11] is T2, Cytochrome P450 2D6. Kind of data set: Inhibition of CYP2D6 in human pooled liver microsomes using dextromethorphan as substrate preincubated with NADPH for 30 mins followed by substrate addition and measured after 10 mins by UPLC-MS/MS analysis. In kind it is ADME.
Data set [12] has as its target T3, Cytochrome P450 2C19. The data set can be described thus: Inhibition of CYP2C19 in human pooled liver microsomes using (S)-mephenytoin as substrate after 10 mins by UPLC-MS/MS analysis. In kind it is ADME.
For data set [13], the target named is T7, Cytochrome P450 4Z1 (Homo sapiens, UniProt Q86W10).
T7 sequence (Q86W10 whole entry): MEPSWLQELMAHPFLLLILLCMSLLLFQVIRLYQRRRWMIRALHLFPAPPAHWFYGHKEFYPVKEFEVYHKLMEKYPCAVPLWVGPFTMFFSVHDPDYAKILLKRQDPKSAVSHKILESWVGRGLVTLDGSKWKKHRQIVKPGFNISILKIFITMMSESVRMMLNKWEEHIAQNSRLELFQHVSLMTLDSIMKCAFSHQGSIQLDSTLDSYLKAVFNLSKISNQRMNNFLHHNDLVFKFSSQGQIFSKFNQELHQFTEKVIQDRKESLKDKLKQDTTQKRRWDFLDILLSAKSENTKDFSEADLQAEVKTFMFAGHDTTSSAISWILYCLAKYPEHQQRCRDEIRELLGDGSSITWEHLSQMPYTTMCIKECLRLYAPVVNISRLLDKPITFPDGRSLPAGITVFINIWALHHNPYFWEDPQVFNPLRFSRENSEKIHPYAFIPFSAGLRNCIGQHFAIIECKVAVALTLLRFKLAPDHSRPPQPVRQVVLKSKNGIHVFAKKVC
Kind of data set: Inhibition of CYP4Z1 (unknown origin) in human HepG2 cell membranes transduced with lentiviral vector using luciferin-benzyl ether as substrate incubated for 5 mins followed by NADPH addition and measured after 20 mins by P450-glo luciferase based luminescence assay.

Data set [14] has as its target T7, Cytochrome P450 4Z1. The data set can be described thus: Inhibition of CYP4Z1 (unknown origin) in human HepG2 cell membranes transduced with lentiviral vector using luciferin-benzyl ether as substrate preincubated with NADPH for 30 mins followed by substrate addition and measured after 10 mins by P450-glo luciferase based luminescence assay.

T3 sequence (P33261 whole entry): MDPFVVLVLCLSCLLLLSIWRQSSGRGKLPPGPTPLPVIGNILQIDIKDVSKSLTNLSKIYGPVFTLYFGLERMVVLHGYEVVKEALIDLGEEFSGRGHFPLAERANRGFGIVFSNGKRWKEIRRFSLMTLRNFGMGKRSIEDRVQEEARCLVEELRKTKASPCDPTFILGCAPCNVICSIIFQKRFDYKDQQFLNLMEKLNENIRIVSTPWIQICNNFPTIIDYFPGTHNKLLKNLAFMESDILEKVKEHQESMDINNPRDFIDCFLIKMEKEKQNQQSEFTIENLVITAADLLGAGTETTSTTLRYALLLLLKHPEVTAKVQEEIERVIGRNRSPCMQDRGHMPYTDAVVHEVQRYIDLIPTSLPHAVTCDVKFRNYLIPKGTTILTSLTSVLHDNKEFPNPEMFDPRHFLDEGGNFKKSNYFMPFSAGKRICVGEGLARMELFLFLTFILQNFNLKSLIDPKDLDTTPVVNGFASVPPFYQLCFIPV

In the case of `O=C(O)CCCCCCCNn1nnc2ccccc21`, the IC50 at 10 min worked out at 244 µM against CYP3A4/5 [1] and 128 µM against CYP3A4/5 [6]. The IC50 against Cytochrome P450 2D6 [2] turned out to be 826 µM; against Cytochrome P450 2C19 [3] it was 246 µM; on Cytochrome P450 1A2 [4], 55 µM; at Cytochrome P450 2C9 [5] it was 343 µM; on Cytochrome P450 1A2 [7], 614 µM; against Cytochrome P450 2C8 [8], 84 µM. Besides, the IC50 against Cytochrome P450 2C8 [9] was found to be 306 µM; on Cytochrome P450 2C9 [10] it was 330 µM; against Cytochrome P450 2D6 [11] it was 299 µM; against Cytochrome P450 2C19 [12], 759 µM. The Activity result in the data set with T47D and in the data set on HepG2 was “Non-Toxic” throughout.

For the compound `Nn1nnc2ccccc21`, the values for the IC50 on Cytochrome P450 4Z1 [13] and at Cytochrome P450 4Z1 [14] were 154 µM and 12 µM, respectively.

Turning to `O=C(O)CCCCCNn1nnc2ccccc21`, the results for the IC50 at 10 min against CYP3A4/5 [1] and at CYP3A4/5 [6] were 1310 µM and 766 µM, respectively. For the same compound, the IC50 was 2850 µM at Cytochrome P450 2D6 [2]; 1640 µM on Cytochrome P450 2C19 [3]; 228 µM against Cytochrome P450 1A2 [4]; above 3000 µM on Cytochrome P450 2C9 [5]; 2790 µM against Cytochrome P450 1A2 [7]; 954 µM at Cytochrome P450 2C8 [8]. The IC50 on Cytochrome P450 2C8 [9] is 2310 µM; on Cytochrome P450 2C9 [10], 1940 µM; at Cytochrome P450 2D6 [11], 1710 µM; on Cytochrome P450 2C19 [12] it was above 3000 µM.

These data come from ChEMBL document CHEMBL4402606, “Design and Characterization of the First Selective and Potent Mechanism-Based Inhibitor of Cytochrome P450 4Z1” (J Med Chem, 2020).
